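Values below derive from 48-hour exposures of cells grown in 96-well plates, with endpoints linearly interpolated between the two concentrations bracketing the appropriate inhibition level. GI50 marks 50% less growth.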 Activity calls are given as the source filed them. Rule as the data show it: active = GI50 up to about 1.1 µM and inactive = higher. Some results are limits rather than exact numbers.

The values below come from ChEMBL document CHEMBL1201862, “PubChem BioAssay data set” (2004).

Test systems include HOP-92; HCT-116; OVCAR-8; Malme-3M; K562; UACC-257; NCI-H226; SF-539; SF-295; NCI-H23; SNB-75; HOP-62; MOLT-4; 786-0; SK-MEL-28; CCRF-CEM; SNB-19; HCT-15; SK-MEL-5; MDA-MB-231.
Holding throughout (assay): NCI tumour cell line growth inhibition, 48 h

With `COc1cc([C@@H]2c3cc4c(cc3[C@@H](OC(=O)c3ccc(N)cc3)C3COC(=O)[C@@H]32)OCO4)cc(OC)c1O` (stereo partly drawn), the GI50 in the test with HOP-92 is 3.77 µM (inactive); with HCT-116 it was 4.45 µM (inactive); in the test with OVCAR-8, 4.49 µM (inactive); in the test with Malme-3M it was 12.3 µM (inactive); in the test with K562, 5.18 µM (inactive); in the test on UACC-257, 9.14 µM (inactive). In addition, the GI50 in the test on NCI-H226 is 6.97 µM (inactive); with SF-539, 2.54 µM (inactive); in the test with SF-295, 4.25 µM (inactive); in the test on NCI-H23 it was 3.32 µM (inactive); with SNB-75, 3.21 µM (inactive); in the test with HOP-62, 3.5 µM (inactive). In addition, the GI50 with MOLT-4 was 3.1 µM (inactive); in the test with 786-0, 7.08 µM (inactive); with SK-MEL-28, 9.48 µM (inactive); with CCRF-CEM it was 6.18 µM (inactive); in the test with SNB-19, 20.7 µM (inactive); in the test on HCT-15 it was 12.8 µM. Further, in the test with SK-MEL-5, the GI50 was 3.59 µM (inactive).
In the case of `O=C1CCC(=O)N1n1c(Cc2ccccc2)n[nH]c1=O`, the GI50 with HCT-116, in the test on OVCAR-8, in the test on Malme-3M, with K562, in the test on UACC-257 and in the test on NCI-H226 was > 100 µM (inactive) throughout. The GI50 was > 100 µM (inactive) in the test with SF-295; 5.26 µM (inactive) in the test with SNB-75; > 100 µM (inactive) in the test with HOP-62; > 100 µM (inactive) in the test with MOLT-4; > 100 µM (inactive) with 786-0; > 100 µM (inactive) with MDA-MB-231. Also, the GI50 is > 100 µM (inactive) with SK-MEL-28; > 100 µM (inactive) in the test with CCRF-CEM; > 100 µM (inactive) in the test on SNB-19; greater than 100 µM in the test on HCT-15; > 100 µM (inactive) with SK-MEL-5.
Turning to `O=C(NO)C(=O)Nc1cc(Cl)ccc1Cl`, the GI50 was 69.5 µM (inactive) in the test on HOP-92; > 100 µM (inactive) in the test with HCT-116; > 100 µM (inactive) with OVCAR-8; > 100 µM (inactive) in the test with Malme-3M; 63.8 µM (inactive) with K562; > 100 µM (inactive) in the test with UACC-257. In addition, the GI50 in the test with NCI-H226, in the test with SF-539, with SF-295, in the test with NCI-H23, with SNB-75 and with HOP-62 was > 100 µM (inactive) throughout. For the same molecule, the GI50 is 83.6 µM (inactive) in the test on MOLT-4; > 100 µM (inactive) in the test on 786-0; > 100 µM (inactive) in the test on SK-MEL-28; 51.1 µM (inactive) in the test with CCRF-CEM; > 100 µM (inactive) with SNB-19; greater than 100 µM with HCT-15. In the test with SK-MEL-5, the GI50 was > 100 µM (inactive).
As for `Cc1cc(S(=O)(=O)N/C(=N/N)NCCc2ccccc2)c(S)cc1Cl`, the GI50 in the test on HCT-116 was 25.1 µM (inactive); in the test on OVCAR-8 it was 18.9 µM (inactive); with Malme-3M, 22 µM (inactive); in the test with K562, 30.6 µM (inactive); with UACC-257, 44.4 µM (inactive); in the test on NCI-H226 it was 25.6 µM (inactive). Also, the GI50 with SF-539 is 24 µM (inactive); with SNB-75 it was 25.6 µM (inactive); in the test with HOP-62, > 10 µM (inactive); with MOLT-4, 17.7 µM (inactive); with 786-0, 30.5 µM (inactive); in the test on MDA-MB-231, 29.6 µM (inactive). In addition, the GI50 is 20.7 µM (inactive) in the test with SK-MEL-28; 25.1 µM (inactive) with CCRF-CEM; 18.1 µM (inactive) in the test on SNB-19; 19.2 µM in the test with HCT-15; 19.2 µM (inactive) in the test on SK-MEL-5.
As for `C1CCCN(NC2=NCCO2)CC1`, the GI50 with HCT-116, with OVCAR-8, with Malme-3M, with K562, in the test on UACC-257 and with NCI-H226 was > 100 µM (inactive) each time. Moreover, the GI50 in the test with SF-539, with SF-295, with NCI-H23, in the test on SNB-75, with HOP-62 and in the test on MOLT-4 was > 100 µM (inactive) each time. Further, the GI50 with 786-0 was > 100 µM (inactive); in the test with MDA-MB-231, > 100 µM (inactive); in the test on CCRF-CEM, > 100 µM (inactive); in the test with SNB-19, > 100 µM (inactive); with HCT-15, greater than 100 µM; with SK-MEL-5, > 100 µM (inactive).
Regarding `O=c1c(Cl)c(Cl)cnn1CCCl`, the GI50 with HOP-92 was 1.93 µM (inactive); with HCT-116 it was 5.48 µM (inactive); with OVCAR-8, 3.44 µM (inactive); in the test with Malme-3M, 2.56 µM (inactive); in the test with K562, 2.06 µM (inactive); in the test on UACC-257 it was 4.46 µM (inactive). The GI50 with NCI-H226 was 23.2 µM (inactive); in the test with SF-539, 14.1 µM (inactive); with SF-295 it was 16 µM (inactive); in the test with NCI-H23 it was 2.52 µM (inactive); with SNB-75 it was 11.1 µM (inactive); in the test with HOP-62, 17.3 µM (inactive). Besides, the GI50 is 2.54 µM (inactive) in the test on MOLT-4; 12.2 µM (inactive) in the test on 786-0; 2.08 µM (inactive) in the test on SK-MEL-28; 1.85 µM (inactive) in the test with CCRF-CEM; 7.03 µM (inactive) in the test on SNB-19; 2.64 µM with HCT-15. The GI50 in the test on SK-MEL-5 is 3.4 µM (inactive).
`CC(C)(CN1C(=O)C(Cl)=C(Cl)C1=O)CN1C(=O)C(Cl)=C(Cl)C1=O`: the GI50 in the test on HOP-92 was 7.64 µM (inactive); with HCT-116 it was 11.5 µM (inactive); in the test with OVCAR-8 it was 6.34 µM (inactive); in the test on Malme-3M, 5.74 µM (inactive); in the test on K562, 1.64 µM (inactive); in the test on UACC-257, 13.9 µM (inactive). Also, the GI50 with NCI-H226 was 22.5 µM (inactive); in the test on SF-539, 20.1 µM (inactive); in the test on SF-295 it was 24.3 µM (inactive); in the test on NCI-H23, 11.7 µM (inactive); with SNB-75, 22.2 µM (inactive); in the test on HOP-62 it was 22.1 µM (inactive). Also, the GI50 is 0.966 µM (active) in the test with MOLT-4; 11.7 µM (inactive) in the test with 786-0; 7.48 µM (inactive) with SK-MEL-28; 0.264 µM (active) in the test on CCRF-CEM; 23 µM (inactive) in the test on SNB-19; 8.63 µM in the test on HCT-15. Moreover, the GI50 in the test on SK-MEL-5 is 22.1 µM (inactive).
On to `O=Cc1c(C(=O)O)[nH]c(=O)[nH]c1=O`, for which the GI50 in the test with HCT-116, with OVCAR-8, with Malme-3M, in the test on K562, in the test on UACC-257 and in the test on NCI-H226 was > 100 µM (inactive) throughout. Moreover, the GI50 with SF-539, in the test with SF-295, in the test on NCI-H23, with SNB-75, in the test with MOLT-4 and with 786-0 was > 100 µM (inactive) each time. Further, the GI50 in the test on MDA-MB-231 is > 100 µM (inactive); in the test with SK-MEL-28, > 100 µM (inactive); in the test with CCRF-CEM, > 100 µM (inactive); in the test on SNB-19, > 100 µM (inactive); in the test with HCT-15 it was greater than 100 µM; in the test on SK-MEL-5, 98.6 µM (inactive).
Turning to `C[N+](C)(Cc1ccc(NC(=O)CCCC(=O)ON2C(=O)CCC2=O)cc1)c1ccccc1`, the GI50 in the test on HOP-92, with HCT-116, with OVCAR-8, in the test with Malme-3M, in the test with K562 and in the test on UACC-257 was < 0.01 µM (active) each time. The GI50 in the test on NCI-H226, in the test on SF-539, in the test on SF-295, in the test with NCI-H23, in the test on SNB-75 and in the test on HOP-62 was < 0.01 µM (active) throughout. For the same molecule, the GI50 is < 0.01 µM (active) with MOLT-4; < 0.01 µM (active) in the test on 786-0; < 0.01 µM (active) in the test on SK-MEL-28; < 0.01 µM (active) in the test with CCRF-CEM; < 0.01 µM (active) in the test on SNB-19; greater than 1 µM in the test on HCT-15. Further, the GI50 in the test on SK-MEL-5 was < 0.01 µM (active).
With `Cc1ccc(NC(=O)CCC(=O)C2Cc3ccccc3C2=O)cc1C` (stereo not drawn), the GI50 in the test on HOP-92, in the test with HCT-116, in the test on OVCAR-8, in the test with Malme-3M, with K562 and in the test on UACC-257 was > 100 µM (inactive) in each case. Besides, the GI50 in the test with NCI-H226, in the test on SF-539, with SF-295, in the test with NCI-H23, with SNB-75 and with HOP-62 was > 100 µM (inactive) in each case. Moreover, the GI50 in the test with MOLT-4 was > 100 µM (inactive); with 786-0 it was > 100 µM (inactive); in the test with SK-MEL-28, > 100 µM (inactive); in the test with CCRF-CEM, > 100 µM (inactive); in the test on SNB-19, > 100 µM (inactive); in the test on HCT-15 it was greater than 100 µM. The GI50 in the test on SK-MEL-5 was > 100 µM (inactive).
In the case of `N#CCCN(c1ccc(-c2nnc(NC(=O)CNNC(=O)CC(=O)Nc3ccccc3)s2)cc1)S(=O)(=O)c1ccccc1`, the GI50 in the test with HOP-92 is 79.6 µM (inactive); in the test with HCT-116, 71.1 µM (inactive); in the test with OVCAR-8 it was > 100 µM (inactive); in the test on Malme-3M, > 100 µM (inactive); in the test on K562 it was 49.2 µM (inactive); with UACC-257 it was > 100 µM (inactive). The GI50 with NCI-H226 was 59.3 µM (inactive); in the test on SF-539 it was > 100 µM (inactive); in the test on SF-295, > 100 µM (inactive); in the test on NCI-H23 it was 76.6 µM (inactive); in the test with SNB-75 it was 29 µM (inactive); with HOP-62, > 100 µM (inactive). In addition, the GI50 in the test with MOLT-4 is 45.3 µM (inactive); in the test with 786-0 it was > 100 µM (inactive); with SK-MEL-28, > 100 µM (inactive); in the test on CCRF-CEM, 90.8 µM (inactive); with SNB-19 it was > 100 µM (inactive); with HCT-15, greater than 100 µM. The GI50 in the test with SK-MEL-5 is 52.1 µM (inactive).
